What all share (type): in vivo, piglets of Swedish country breed
One experiment deals with NF-κB. As to the kind of experiment: Expression of NF-κB, immunohistochemical staining of tissue from endotoxin-exposed piglets. The protocol: (§1) Anesthesia, surgery preparation and catheterizations were followed by 30 min of rest. Baseline measurements were then made. The pigs were followed for another 6 hours to establish control data over the whole study period. The pigs were killed after the last measurement with an intra-venous injection of KCl; and tissue samples were taken from the lung, liver and kidney for morphological and biochemical studies.
(§2) Anesthesia, surgery and catheterizations were similar to the controls. After baseline measurements, acute lung injury and septic shock was induced by intravenous infusion of LPS 25 μg/kg/h in saline for 2.5 h, followed by 10 μg/kg/h for the remainder of the study. […]
(§3) The antibodies were detected with the peroxidase-anti-peroxidase method using 3-amino-9-ethyl-carbazole (AEC, SIGMA Catalogue No. A-6926 Germany) as chromogen. […]
(§4) An image-analysis system consisting of a 12-bit cooled charge-coupled device camera (Sensys KAF 1400, Photometrics, Tucson, AZ) mounted on a fully automated Leica (Wetzlar, Germany) DM RXA microscope was used to digitize grey-scale images to a dual-Pentium 200 MHz host computer. […] The optimal central wavelength was determined by measurement of the substrate in a Leica MPV SP microscope photometer system (courtesy of Leica).

Experiment [1] relates to endotoxin pig model (LPS-induced acute lung injury and septic shock). As to the kind of experiment: Histological changes of lung, liver and kidney tissues in endotoxin pig model. Details: Congestion / Inflammatory cell infiltrate / Congestion and hemorrhage / Edema/ Hemorrage: key to the marks not given beside the values. The protocol:
(§5) The pigs were divided into 5 groups: • 1. Normal control group • 2. Endotoxin (lipopolysaccharide, LPS) group • 3. LPS+INO group • 4. LPS+steoid group • 5. LPS +INO +steroid group • The different protocols are shown schematically in FIG. 1 and are described below. 1. Healthy Control Group (n=8)
as §1
(§6) After baseline measurements, acute lung injury and septic shock was induced by intravenous infusion of LPS 25 μg/kg/h in saline for 2.5 h, followed by 10 μg/kg/h for the remainder of the study. The pigs were followed by hemodynamics and blood gas measurements and were killed at the end of the experiment and tissue samples were taken, as described above.
(§7) LPS infusion was started after baseline measurements and continued for 6 hours. Two and half hours after commencement of the endotoxin infusion, inhalation of NO 30 ppm was started and maintained for 3.5 hours. Measurements were taken every hour to check for any protective effect of INO therapy on the lung and extra-pulmonary organs.
(§8) This group received endotoxin over 6 hours, as described above, and 2.5 hours after the start of endotoxin administration steroids were given i.v. and INO, 30 ppm, was commenced and continued for the remaining 3.5 hours study period.
NO, 1000 ppm in N2, was added to a mixture of O2/N2 and administered through the low-flow inlet of the ventilator. The inspired gas was passed through a canister containing soda lime to absorb any NO2. […] The concentrations of inspired NO and NO2 were measured continuously, by chemiluminescence (9841 NOx, Lear Siegler Measurement Controls Corporation, Englewood, Colo., USA), in the inspiratory limb of the ventilator tubing. FIO2 was checked after addition of NO and kept stable at the pre-INO level.

Another experiment has as its system glucocorticoid receptor. As to the kind of experiment: GR expression, immunohistochemical staining of tissue from endotoxin-exposed piglets. Particulars: compared with LPS group. The protocol:
as §1, §2, §3, §4

Experiment [2] relates to endotoxin pig model (LPS-induced acute lung injury and septic shock). Kind of experiment: Haemodynamics and arterial oxygenation in endotoxin (LPS) pig model. The protocol: as §5, §6, §7, §8
NO, 1000 ppm in N2, was added to a mixture of O2/N2 and administered through the low-flow inlet of the ventilator. The inspired gas was passed through a canister containing soda lime to absorb any NO2. […] The concentrations of inspired NO and NO2 were measured continuously, by chemiluminescence (9841 NOx, Lear Siegler Measurement Controls Corporation, Englewood, Colo., USA), in the inspiratory limb of the ventilator tubing.

Where [3] appears, read: Kidney, piglets, LPS infusion 6 h, treatment from 2.5 h (INO 30 ppm; hydrocortisone 3.5 mg/kg i.v.).
Setting [4] is: Liver, piglets, LPS infusion 6 h, treatment from 2.5 h (INO 30 ppm; hydrocortisone 3.5 mg/kg i.v.).
Where [5] appears, read: piglets during 6 h endotoxin infusion, treatment from 2.5 h.

Entries after “also recorded” stand apart in the source; their conditions may differ.

For the substance nitric oxide [LPS + INO], the “NF-kB expression in lung tissue, in words” value in the experiment on NF-κB is “at a low level”. Also, the “histology changes of kidney tissue, in words” value in experiment [1] (Kidney, endotoxin-exposed piglets, compared with LPS group / healthy) is “even less marked than in the LPS+Steroid group”. In experiment [1] (setting [3]), the “Edema/ Hemorrage” value is “+++” and the Inflammatory cell infiltrate result is reported as “+++”. Also, the “histology changes of liver tissue, in words” value in experiment [1] (Liver, endotoxin-exposed piglets, compared with LPS group / healthy) was “much less than in the LPS group”. For the same substance, in experiment [1] (setting [4]), the Congestion and hemorrhage entry is “++”; the “Destruction of the lobular structure” value was “+”; the Inflammatory cell infiltrate entry is given as “+++”. In addition, in experiment [1] (Lung, endotoxin-exposed piglets, compared with LPS group / healthy), the “histology changes of lung tissue, in words” value is “even less of these changes”. For the same substance, in experiment [1] (Lung, piglets, LPS infusion 6 h, treatment from 2.5 h (INO 30 ppm for 3.5 h; hydrocortisone 3.5 mg/kg i.v.)), the Inflammatory cell infiltrate entry is “+++”. Also, in experiment [1] (Lung, piglets, LPS infusion 6 h, treatment from 2.5 h (INO 30 ppm; hydrocortisone 3.5 mg/kg i.v.)), the Congestion result is “+++”. The “inflammatory response, in words” value in experiment [1] (endotoxin pig model, lung, liver and kidney (discussion)) is listed as “attenuated the inflammatory response but only to a limited degree”. For the same substance, the “expression of glucocorticoid receptor in lung tissue, in words” value with glucocorticoid receptor is listed as “significantly raised”. Moreover, in experiment [2] (setting [5]), the “arterial oxygenation (PaO2), effect in words” value is “improved oxygenation; also recorded: prevented part of the fall in PaO2” and the “mean pulmonary artery pressure (MPAP), effect in words” value is recorded as “lowered MPAP but not back to normal; also recorded: attenuated the increase in MPAP”. The “MPAP higher than in healthy controls” value in experiment [2] (piglets during endotoxin infusion with INO 30 ppm, p<0.01 vs healthy controls) is given as 75-80%.
